How the values were obtained:
PRMT5/MEP50 complex = PRMT5/MEP50 complex (Homo sapiens, UniProt O14744); experiment: Inhibition of streptavidin sensor chip immobilized biotinylated human PRMT5/MEP50 assessed as dissociation constant by SPR analysis; format: protein-complex assay
[1] = Apparent permeability across apical to basolateral side in dog MDCKII-MDR1 cells at 2 uM incubated for 2.5 hrs by LC-MS/MS analysis; format: ADME, cell-based, Canis lupus familiaris, MDCK-MDR1; conditions: MDCK-MDR1
[2] = Efflux ratio of apparent permeability across basolateral to apical side over apical to basolateral side in dog MDCKII-MDR1 cells at 2 uM incubated for 2.5 hrs by LC-MS/MS analysis; format: ADME, cell-based, Canis lupus familiaris, MDCK-MDR1; conditions: MDCK-MDR1
[3] = target: T1, Protein arginine N-methyltransferase 5 (Homo sapiens, UniProt O14744)
T1 sequence (O14744 whole entry): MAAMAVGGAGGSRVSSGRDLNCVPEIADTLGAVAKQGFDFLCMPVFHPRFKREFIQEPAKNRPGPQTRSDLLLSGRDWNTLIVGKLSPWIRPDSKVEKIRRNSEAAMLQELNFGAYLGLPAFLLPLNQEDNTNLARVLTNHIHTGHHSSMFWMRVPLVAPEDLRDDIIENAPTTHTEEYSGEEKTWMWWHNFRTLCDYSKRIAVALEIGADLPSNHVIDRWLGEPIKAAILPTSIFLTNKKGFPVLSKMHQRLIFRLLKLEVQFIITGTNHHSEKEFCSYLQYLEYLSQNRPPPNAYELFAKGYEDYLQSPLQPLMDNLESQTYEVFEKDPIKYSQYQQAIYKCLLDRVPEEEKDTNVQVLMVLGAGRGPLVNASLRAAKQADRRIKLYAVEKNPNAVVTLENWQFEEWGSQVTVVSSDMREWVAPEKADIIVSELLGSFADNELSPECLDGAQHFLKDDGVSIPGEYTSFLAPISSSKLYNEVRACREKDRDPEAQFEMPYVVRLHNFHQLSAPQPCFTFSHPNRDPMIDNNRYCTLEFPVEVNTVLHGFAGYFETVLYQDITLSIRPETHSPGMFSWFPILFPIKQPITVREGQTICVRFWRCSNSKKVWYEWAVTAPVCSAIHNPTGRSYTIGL

[4] = target: T1, Protein arginine N-methyltransferase 5; remark: listed apart in the source
[5] = target: T1, Protein arginine N-methyltransferase 5; experiment: Inhibition of PRMT5 methyltransferase activity in MTAP knockout human HCT-116 cells assessed as inhibition of PRMT5- mediated SDMA modification level incubated for 96 hrs by Western blot analysis; format: cell-based
HCT-116 [6] = experiment: Antiproliferative activity against MTAP knockout human HCT-116 cells assessed as reduction in cell viability incubated for 5 days followed by replacement with fresh medium containing compound and measured after 5 days by CTG assay; format: functional, cell-based
HCT-116 [7] = experiment: Antiproliferative activity against human HCT-116 cells expressing wild type MTAP assessed as reduction in cell viability incubated for 5 days followed by replacement with fresh medium containing compound and measured after 5 days by CTG assay; format: functional, cell-based
[8] = Intrinsic clearance in human hepatocytes; format: ADME, cell-based, Hepatocyte; conditions: read-out: CLH
[9] = Intrinsic clearance in mouse hepatocytes; format: ADME, cell-based, Hepatocyte; conditions: read-out: CLH
[10] = target: T1, Protein arginine N-methyltransferase 5; experiment: Inhibition of PRMT5 methyltransferase activity in human HCT-116 cells expressing wild type MTAP assessed as inhibition of PRMT5- mediated SDMA modification level incubated for 96 hrs by Western blot analysis; format: cell-based
Homo sapiens [11] = species: Homo sapiens; experiment: Selectivity ratio of IC50 for inhibition of PRMT5 methyltransferase activity in human HCT-116 cells expressing wild type MTAP to IC50 for nhibition of PRMT5 methyltransferase activity in MTAP knockout human HCT-116 cells; format: cell-based
Homo sapiens [12] = species: Homo sapiens; experiment: Selectivity ratio of IC50 for inhibition of human PRMT5 co-complexed with MEP50 in absence of MTA to IC50 for inhibition of MTA-bound human PRMT5 co-complexed with MEP50

PRMT5/MEP50 complex, sequence (O14744 whole entry): as above
PRMT5/MEP50 complex, sequence (Q9BQA1 whole entry, further chain): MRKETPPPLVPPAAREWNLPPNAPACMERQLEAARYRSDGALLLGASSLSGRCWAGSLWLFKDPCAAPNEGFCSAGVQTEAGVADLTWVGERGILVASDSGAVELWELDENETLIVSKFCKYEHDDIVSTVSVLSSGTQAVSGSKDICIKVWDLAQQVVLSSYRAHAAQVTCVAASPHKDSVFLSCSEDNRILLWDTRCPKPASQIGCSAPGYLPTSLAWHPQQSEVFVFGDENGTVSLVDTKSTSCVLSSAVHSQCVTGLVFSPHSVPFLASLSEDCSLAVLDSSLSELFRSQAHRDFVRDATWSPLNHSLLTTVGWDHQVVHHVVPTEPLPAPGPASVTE

Structure (SMILES)	IC50 [3]	IC50 [4]	Ratio IC50 (Homo sapiens [12])	Kd (PRMT5/MEP50 complex)	Papp A→B at 2.5 h, 2 µM [1]	efflux ratio at 2.5 h, 2 µM [2]	IC50 [5]	IC50 (HCT-116 [6])	IC50 (HCT-116 [7])	CLint scaled [8]	CLint scaled [9]	IC50 [10]	Ratio IC50 (Homo sapiens [11])
CSC[C@H]1O[C@@H](n2cnc3c(N)ncnc32)[C@H](O)[C@@H]1O [METHYLTHIOADENOSINE]				661 nM									
C[S@@+](CC[C@H](N)C(=O)[O-])C[C@H]1O[C@@H](n2cnc3c(N)ncnc32)[C@H](O)[C@@H]1O				550 nM									
Cc1cc(OC2CC2)c(C#N)c(-c2c(-c3ccc4c(=O)[nH]nc(CN)c4c3)cnn2C)c1					0.4 ×10⁻⁶ cm/s	62	9 nM	77 nM	1290 nM	21 mL/min/kg	175 mL/min/kg		
Cn1ncc(-c2ccc3c(=O)[nH]nc(CN)c3c2)c1-c1ccccc1C#N		4000 nM			1.6 ×10⁻⁶ cm/s	7	826 nM	5230 nM	> 10000 nM	< 18 mL/min/kg	148 mL/min/kg	3170 nM	4
Cn1ncc(-c2ccc3c(=O)[nH]nc(CN)c3c2)c1-c1c(F)cccc1C#N		4000 nM			0.3 ×10⁻⁶ cm/s	42	322 nM	761 nM	7440 nM	18 mL/min/kg	171 mL/min/kg	> 10000 nM	
Cn1ncc(-c2ccc3c(=O)[nH]nc(CN)c3c2)c1-c1sc2ccccc2c1C#N					0.6 ×10⁻⁶ cm/s	58	5 nM	58 nM	5800 nM	41 mL/min/kg	280 mL/min/kg	> 1000 nM	
COc1cccc(-c2c(-c3ccc4c(=O)[nH]nc(CN)c4c3)cnn2C)c1C#N		1000 nM			0.6 ×10⁻⁶ cm/s	20	62 nM	851 nM	> 10000 nM	< 18 mL/min/kg	137 mL/min/kg	> 10000 nM	
Cn1ncc(-c2ccc3c(=O)[nH]nc(CN)c3c2)c1-c1ccc2ccccc2c1C#N					0.4 ×10⁻⁶ cm/s	99	11 nM	49 nM	1980 nM	< 18 mL/min/kg	340 mL/min/kg	1210 nM	

Second part, led by results:

IC50 [3]	IC50 [4]	Ratio IC50 (Homo sapiens [12])	Structure (SMILES)	Kd (PRMT5/MEP50 complex)	Papp A→B at 2.5 h, 2 µM [1]	efflux ratio at 2.5 h, 2 µM [2]	IC50 [5]	IC50 (HCT-116 [6])	IC50 (HCT-116 [7])	CLint scaled [8]	CLint scaled [9]	IC50 [10]	Ratio IC50 (Homo sapiens [11])
> 100000 nM	30100 nM		NCc1n[nH]c(=O)c2ccc(-c3cccnn3)cc12		1.1 ×10⁻⁶ cm/s	0.9							
10600 nM	510 nM	21	CCn1cc(-c2ccc3c(=O)[nH]nc(CN)c3c2)cn1		2 ×10⁻⁶ cm/s	6.2							
7650 nM	320 nM	24	CCCn1cc(-c2ccc3c(=O)[nH]nc(CN)c3c2)cn1		3.2 ×10⁻⁶ cm/s	2.7							
11600 nM	710 nM	16	NCc1n[nH]c(=O)c2ccc(-c3cnsc3)cc12		11.1 ×10⁻⁶ cm/s	0.8							
1290 nM	50 nM	26	Cc1c(-c2ccc3c(=O)[nH]nc(CN)c3c2)cnn1C		4.9 ×10⁻⁶ cm/s	0.6							
11200 nM		16	NCc1n[nH]c(=O)c2ccc(-c3cnn(CCO)c3)cc12		0.9 ×10⁻⁶ cm/s	0.9							

Reference: ChEMBL document CHEMBL5046262, “Fragment-Based Discovery of MRTX1719, a Synthetic Lethal Inhibitor of the PRMT5•MTA Complex for the Treatment of MTAP-Deleted Cancers” (J Med Chem, 2022)
